Assay results: patent publication US20240368150A1 (Hoffmann-La Roche Inc., priority 2021, published 2024)
pEC50: −log10 of the molar value. Read-outs that look alike come from different tables or passages of the source.

Columns and labels:
primary human T-cells [1] = tested on: primary human T-cells
Protocol: As readouts for T-cell activation, IL2 secretion after 24 hours and proliferation after 5 days was measured. Increases in IL2 secretion and proliferation upon compound treatment were assessed as the % of the maximum of reference compound A1. […] As a counter screen and to make sure that no unwanted TCR-independent activation was triggered, PBS conditions were run for all compounds.
For coating of plates, PBS++ with PBS−− or PBS++ with CD3 antibody (concentration depending on donor and determined by CD3 titrations) was added 100 μl/well to Poly-D Lysine coated 96-well plates. Plates were sealed and incubated at room temperature for 3 hours on a table-top rocking platform. After incubation, plates were washed once with PBS−− and filled with 40 μl/well culture medium only. Compounds were then added (see next section) to medium only plates. After 3 hours of culturing the T-cells, cells were filtered through a cell strainer (Miltenyi Biotech, #130-041-407), counted again and concentration was adjusted to 1.25 Mio/ml.
Cells were then seeded 80 μl/well to the 40 μl/well including dispensed compounds according to plate layout. By adding cells, compounds were further diluted 1:3, and resulting in 100 k cells/120 μl/well. After 24 hours 40 μl of supernatant was collected carefully from the top while not disturbing the cells and transferred into a round bottom 96 well plate. Collected and frozen supernatant was used for detection of IL2 using the IL-2 Human ProQuantum Immunoassay Kit (Invitrogen) or using the Human IL-2 ELISA Kit (Thermo Fisher).
Compounds were added in a 5 or 6pt dose response with the Tecan D300e Digital Dispenser, all conditions 3 times more concentrated than the end-concentration, since cells are added afterwards (80 μl cells to 40 μl prepared medium with treatment). The DR was starting at 20 μM or 10 μM final top concentration and a dilution factor of 3.333. The positive control was the reference compound A1 that was added in a dose response as well, additionally to 3 wells of only 20 μM representing the positive stimulator control. All wells were normalized with DMSO to a final concentration of 0.6% (0.2% end-concentration).
The immunoassay is done following the manufacturer's manual (Invitrogen, #A35603). Additional information: For the immunoassay, MicroAmp™ EnduraPlate™ Optical 384-Well plates are used. Frozen supernatant is thawed and centrifuged for 5 minutes at 1000×g, both steps at 4° C. After centrifugation, required sample amount is taken from the top, and in a separate LightCycler V-bottom plate (working plate) diluted with assay dilution buffer, dilution factor depending on the PBS or CD3 condition but at least 1:3. IL-2 standard and blanks are prepared in the same V-bottom plate, standard with a range of 0.0128-5000 pg/ml (extended version). After preparation, 5 μl of sample dilutions or standard/blanks are transferred to the optical 384-well plate (assay plate) and the 10 μl reaction protocol is being followed. For measurement, the QuantStudio 12K Flex system is used.
ELISA is done following the manufacturer's manual (Thermo Fisher Scientific, #88-7025-88). Additional information: For the ELISA Nunc MaxiSorp 96 well plates are used. Frozen supernatant is thawed and centrifuged for 5 minutes at 1000×g, both steps at 4° C. After that, required sample amount is taken from the top, and in a separate V-bottom plate diluted with ELISA diluent, dilution factor depending on the PBS or CD3 condition. IL-2 standard and blanks are prepared in the same V-bottom plate. After preparation, 50 μl of sample dilutions and 100 μl of standard or blanks are transferred to the Nunc plates.
CD3 and PBS plates were analysed separately in Genedata Screener using Roche Normalization PCT_POS_CTRL with DMSO set as Neutral Control and 20 μM of the reference compound A1 set as Stimulator Control/100%.
For CD3 conditions EC50 and Emax of the fitted sigmoidal curve were reported.

primary human T-cells [2] = assay: Proliferation assay after 5 days (CellTiter-Glo, CD3 stimulation; PBS counter screen); format: cell-based; conditions: Homo sapiens, T-cell, 120 h, CD3 stimulation; for Emax: 5 days, normalized to reference compound A1 as stimulator control = 100%, DMSO neutral control, read-out: Emax proliferation (% activation); for pEC50: primary human T-cells, CellTiter-Glo after 5 days, EC50 of fitted sigmoidal curve, read-out: Tcell Proliferation CD3 EC50
Procedure, shortened: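 Compounds were added to medium-only plates, and proliferation was read 5 days later as luminescence from CellTiter-Glo 2.0, whose ATP signal is proportional to cell number. Plates and reagent were equilibrated to room temperature for 45 min before an equal volume of reagent was added, with 15 min rocking.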

Compound	pEC50 (primary human T-cells [1])	Emax (primary human T-cells [2]) [%]	pEC50 (primary human T-cells [2])
CC(C)(C)c1nnc(-c2cc3c(cc2F)S(=O)(=O)C[C@H](N)C(=O)N3Cc2ccc(F)cc2)o1 [Example 231, (3R)-3-amino-7-(5-tert-butyl-1,3,4-oxadiazol-2-yl)-8-fluoro-5-[(4-fluorophenyl)methyl]-1,1-dioxo-2,3-dihydro-1\6,5-benzothiazepin-4-one]	6.53	114	6.59
CC(C)(C)c1nnc(-c2cc3c(cc2F)S(=O)(=O)C[C@H](N)C(=O)N3Cc2ccc(Oc3ccccc3)cc2)o1 [Example 233]	7.02	127	7.06
CC(C)(C)c1nnc(-c2cc3c(cc2F)S(=O)(=O)C[C@H](N)C(=O)N3Cc2ccc(OCCO)cc2)o1 [Example 234, (3R)-3-amino-7-(5-tert-butyl-1,3,4-oxadiazol-2-yl)-8-fluoro-5-[[4-(2-hydroxyethoxy)phenyl]methyl]-1,1-dioxo-2,3-dihydro-1λ^6,5-benzothiazepin-4-one]	5.27	130	5.92
CC(=O)NCCCCCCCCCCCOc1ccc(CN2C(=O)[C@@H](N)CS(=O)(=O)c3cc(F)c(-c4nnc(C(C)(C)C)o4)cc32)cc1 [Example 235, N-[11-[4-[[(3R)-3-amino-7-(5-tert-butyl-1,3,4-oxadiazol-2-yl)-8-fluoro-1,1,4-trioxo-2,3-dihydro-1λ^6,5-benzothiazepin-5-yl]methyl]phenoxy]undecyl]acetamide]	6.77	108	7.33
CC(C)(C)c1nnc(-c2cc3c(cc2F)S(=O)(=O)C[C@H](N)C(=O)N3Cc2ccc(OCC(N)=O)cc2)o1 [Example 236, 2-[4-[[(3R)-3-amino-7-(5-tert-butyl-1,3,4-oxadiazol-2-yl)-8-fluoro-1,1,4-trioxo-2,3-dihydro-1λ^6,5-benzothiazepin-5-yl]methyl]phenoxy]acetamide]	5.49	98	5.49
CC(C)(C)c1nnc(-c2cc3c(cc2F)S(=O)(=O)C[C@H](N)C(=O)N3Cc2cnc(C3CC3)nc2)o1 [Example 238, (3R)-3-amino-7-(5-tert-butyl-1,3,4-oxadiazol-2-yl)-5-[(2-cyclopropylpyrimidin-5-yl)methyl]-8-fluoro-1,1-dioxo-2,3-dihydro-1λ^6,5-benzothiazepin-4-one]	6.11	102	5.51
CC(C)(C)c1nnc(-c2cc3c(cc2F)S(=O)(=O)C[C@H](N)C(=O)N3Cc2ccc(C3(O)COC3)cc2)o1 [Example 239, (3R)-3-amino-7-(5-tert-butyl-1,3,4-oxadiazol-2-yl)-8-fluoro-5-[[4-(3-hydroxyoxetan-3-yl)phenyl]methyl]-1,1-dioxo-2,3-dihydro-1λ^6,5-benzothiazepin-4-one]	5.25	69	5.29
CC(C)(C)c1nnc(-c2cc3c(cc2F)S(=O)(=O)C[C@H](N)C(=O)N3Cc2ccc(S(C)(=O)=O)cc2F)o1 [Example 240, (3R)-3-amino-7-(5-tert-butyl-1,3,4-oxadiazol-2-yl)-8-fluoro-5-[(2-fluoro-4-methylsulfonyl-phenyl)methyl]-1,1-dioxo-2,3-dihydro-1λ^6,5-benzothiazepin-4-one]	5.19	74	5.26
CCc1coc(CN2C(=O)[C@@H](N)CS(=O)(=O)c3cc(F)c(-c4nnc(C(C)(C)C)o4)cc32)n1 [Example 241, (3R)-3-amino-7-(5-tert-butyl-1,3,4-oxadiazol-2-yl)-5-[(4-ethyloxazol-2-yl)methyl]-8-fluoro-1,1-dioxo-2,3-dihydro-1λ^6,5-benzothiazepin-4-one]	< 5.00	73	5.53
CC(C)(C)c1nnc(-c2cc3c(cc2F)S(=O)(=O)C[C@H](N)C(=O)N3Cc2ccc(S(C)(=O)=O)c(F)c2)o1 [Example 242, (3R)-3-amino-7-(5-tert-butyl-1,3,4-oxadiazol-2-yl)-8-fluoro-5-[(3-fluoro-4-methylsulfonyl-phenyl)methyl]-1,1-dioxo-2,3-dihydro-1λ^6,5-benzothiazepin-4-one]	5.32	92	5.47
CC(C)(C)c1nnc(-c2cc3c(cc2F)S(=O)(=O)C[C@H](N)C(=O)N3Cc2ccc(OCC(F)(F)F)cc2)o1 [Example 243, (3R)-3-amino-7-(5-tert-butyl-1,3,4-oxadiazol-2-yl)-8-fluoro-1,1-dioxo-5-[[4-(2,2,2-trifluoroethoxy)phenyl]methyl]-2,3-dihydro-1λ^6,5-benzothiazepin-4-one]	6.04	129	6.61
CC(C)(C)c1nnc(-c2cc3c(cc2F)S(=O)(=O)C[C@H](N)C(=O)N3Cc2ccc(Cl)c(F)c2)o1 [Example 245, (3R)-3-amino-7-(5-tert-butyl-1,3,4-oxadiazol-2-yl)-5-[(4-chloro-3-fluoro-phenyl)methyl]-8-fluoro-1,1-dioxo-2,3-dihydro-1λ^6,5-benzothiazepin-4-one]	7.04	127	6.99
CC(C)(C)c1nnc(-c2cc3c(cc2F)S(=O)(=O)C[C@H](N)C(=O)N3Cc2ccc(F)c(F)c2)o1 [Example 246, (3R)-3-amino-7-(5-tert-butyl-1,3,4-oxadiazol-2-yl)-5-[(3,4-difluorophenyl)methyl]-8-fluoro-1,1-dioxo-2,3-dihydro-1λ^6,5-benzothiazepin-4-one]	6.47	110	6.35
CC(C)(C)c1nnc(-c2cc3c(cc2F)S(=O)(=O)C[C@H](N)C(=O)N3Cc2ccc(OC3CCCC3)nc2)o1 [Example 248, (3R)-3-amino-7-(5-tert-butyl-1,3,4-oxadiazol-2-yl)-5-[[6-(cyclopentoxy)-3-pyridyl]methyl]-8-fluoro-1,1-dioxo-2,3-dihydro-1λ^6,5-benzothiazepin-4-one]	6.85	157	6.36

Now from value to molecule, other results behind:

pEC50 (primary human T-cells [1])	Compound	Emax (primary human T-cells [2]) [%]	pEC50 (primary human T-cells [2])
6.49	CC(C)Oc1ccc(CN2C(=O)[C@@H](N)CS(=O)(=O)c3cc(F)c(-c4nnc(C(C)(C)C)o4)cc32)nc1 [Example 247, (3R)-3-amino-7-(5-tert-butyl-1,3,4-oxadiazol-2-yl)-8-fluoro-5-[(5-isopropoxy-2-pyridyl)methyl]-1,1-dioxo-2,3-dihydro-1λ^6,5-benzothiazepin-4-one]	79	6.12
< 5.00	CC(C)(C)c1nnc(-c2cc3c(cc2F)S(=O)(=O)C[C@H](N)C(=O)N3Cc2ccc(Cl)nn2)o1 [Example 251, (3R)-3-amino-7-(5-tert-butyl-1,3,4-oxadiazol-2-yl)-5-[(6-chloropyridazin-3-yl)methyl]-8-fluoro-1,1-dioxo-2,3-dihydro-1λ^6,5-benzothiazepin-4-one]	66	5.28
5.94	CC(C)(C)c1nnc(-c2cc3c(cc2F)S(=O)(=O)C[C@H](N)C(=O)N3Cc2cncc(Cc3ccc(Cl)cc3)c2)o1 [Example 252, (3R)-3-amino-7-(5-tert-butyl-1,3,4-oxadiazol-2-yl)-5-[[5-[(4-chlorophenyl)methyl]-3-pyridyl]methyl]-8-fluoro-1,1-dioxo-2,3-dihydro-1λ^6,5-benzothiazepin-4-one]	72	5.32
6.07	CC(C)(C)c1nnc(-c2cc3c(cc2F)S(=O)(=O)C[C@H](N)C(=O)N3Cc2cnn(CC3CC3)c2)o1 [Example 255, (3R)-3-amino-7-(5-tert-butyl-1,3,4-oxadiazol-2-yl)-5-[[1-(cyclopropylmethyl)pyrazol-4-yl]methyl]-8-fluoro-1,1-dioxo-2,3-dihydro-1λ^6,5-benzothiazepin-4-one]	78	5.32
< 4.70	CC(C)(C)c1nnc(-c2cc3c(cc2F)S(=O)(=O)C[C@H](N)C(=O)N3Cc2ccc(Cl)cc2CN)o1 [Example 256, (3R)-3-amino-5-[[2-(aminomethyl)-4-chloro-phenyl]methyl]-7-(5-tert-butyl-1,3,4-oxadiazol-2-yl)-8-fluoro-1,1-dioxo-2,3-dihydro-1λ^6,5-benzothiazepin-4-one]	3	< 4.70
< 4.70	CC(C)(C)c1nnc(-c2cc3c(cc2F)S(=O)(=O)C[C@H](N)C(=O)N3Cc2ccc(OCCCCCCCCCCCN)cc2)o1 [Example 257, (3R)-3-amino-5-[[4-(11-aminoundecoxy)phenyl]methyl]-7-(5-tert-butyl-1,3,4-oxadiazol-2-yl)-8-fluoro-1,1-dioxo-2,3-dihydro-1λ^6,5-benzothiazepin-4-one]	142	> 6.79
4.97	CC(=O)N[C@H]1CS(=O)(=O)c2cc(F)c(-c3nnc(C(C)(C)C)o3)cc2N(Cc2ccc(Cl)cc2)C1=O [Example 258, N-[(3R)-7-(5-tert-butyl-1,3,4-oxadiazol-2-yl)-5-[(4-chlorophenyl)methyl]-8-fluoro-1,1,4-trioxo-2,3-dihydro-1λ^6,5-benzothiazepin-3-yl]acetamide]	124	6.23
5.68	CCC(=O)N[C@H]1CS(=O)(=O)c2cc(F)c(-c3nnc(C(C)(C)C)o3)cc2N(Cc2ccc(Cl)cc2)C1=O [Example 259, N-[(3R)-7-(5-tert-butyl-1,3,4-oxadiazol-2-yl)-5-[(4-chlorophenyl)methyl]-8-fluoro-1,1,4-trioxo-2,3-dihydro-1λ^6,5-benzothiazepin-3-yl]propanamide]	159	6.46
< 4.70	CC[C@H](O)C(=O)N[C@H]1CS(=O)(=O)c2cc(F)c(-c3nnc(C(C)(C)C)o3)cc2N(Cc2ccc(Cl)cc2)C1=O [Example 260, (2S)-N-[(3R)-7-(5-tert-butyl-1,3,4-oxadiazol-2-yl)-5-[(4-chlorophenyl)methyl]-8-fluoro-1,1,4-trioxo-2,3-dihydro-1λ^6,5-benzothiazepin-3-yl]-2-hydroxy-butanamide]	82	5.74
